In PMC5802807, “Heme interaction of the intrinsically disordered N-terminal peptide segment of human cystathionine-β-synthase” (Scientific Reports, 2018) one finds Kd data, which are given here for 1 molecule.

The experiment concerns the target T1, GB1CBS(1–40) (Homo sapiens, UniProt P35520).
T1 construct: gene CBS; His6 tag cut with thrombin; E. coli BL21(DE3); full-length CBS 551 residues
T1 sequence (P35520 1-40): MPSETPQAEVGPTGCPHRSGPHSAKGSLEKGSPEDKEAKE
Briefly: UV/Vis titration, Soret band at […] nm. It counts as binding.

As a reminder, the Kd is the equilibrium constant for the complex coming apart. Read a low Kd as tighter binding. `C=CC1=C(C)C2=Cc3c(C=C)c(C)c4[n]3[Fe]([Cl])[n]3c(c(C)c(CCC(=O)O)c3=CC3=NC(=C4)C(C)=C3CCC(=O)O)=CC1=N2` [hemin] came in with a Kd of 2180 ± 640 nM.
